Test results reported in US20250109139A1, “TRICYCLIC COMPOUND, AND PREPARATION METHOD THEREFOR AND USE THEREOF” (SHANGHAITECH UNIVERSITY, priority 2022, published 2025).

Experiments:
dopamine D2 receptors [1] = target: T1, dopamine D2 receptors (Homo sapiens (Human), UniProt P14416); assay: Dopamine D2 receptor radioligand competition binding assay ([3H]-Methylspiperone); conditions: [3H]-Methylspiperone 0.3 to 0.5 nM, 293T membranes; read-out: Affinity Ki
Method in brief: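 Membranes from cells transfected with human D2 receptor, PEI-mediated; competition with [3H]-methylspiperone for 2 h at room temperature in the dark.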

[2] = target: T2, 5-hydroxytryptamine 1A (5-HT1A) receptors (Homo sapiens (Human), UniProt P08908); assay: 5-HT1A receptor β-arrestin2 BRET (recruitment); format: cell-based; conditions: relative to endogenous ligand 5-hydroxytryptamine
T2 sequence (P08908 whole entry): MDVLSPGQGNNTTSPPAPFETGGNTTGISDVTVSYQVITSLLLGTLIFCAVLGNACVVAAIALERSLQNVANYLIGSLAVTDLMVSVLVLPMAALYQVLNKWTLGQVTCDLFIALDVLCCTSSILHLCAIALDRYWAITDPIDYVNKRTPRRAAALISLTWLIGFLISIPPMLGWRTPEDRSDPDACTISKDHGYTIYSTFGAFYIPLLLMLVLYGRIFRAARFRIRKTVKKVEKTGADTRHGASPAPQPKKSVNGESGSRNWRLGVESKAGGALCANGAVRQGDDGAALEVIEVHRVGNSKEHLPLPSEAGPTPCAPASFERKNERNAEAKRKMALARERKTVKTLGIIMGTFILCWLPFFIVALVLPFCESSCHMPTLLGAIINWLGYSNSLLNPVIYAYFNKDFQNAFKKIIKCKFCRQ
Method: At the same time, in order to examine the downstream β-arrestin2 signaling pathway mediated by 5-HT1A receptors, on the first day, a 6 cm culture dish was used for transfection with 500 ng of 5-HT1A receptors containing C-terminal seaweed luciferase (5HT1AR-Rluc), 500 ng of G protein-coupled receptor kinase 2 (GRK2), 2500 ng of β-arrestin2 containing N-terminal green fluorescent protein (GFP2-ARRB2), and 14 μL of PEI. The next day, the confluent cells of a 6 cm culture dish were digested and reseeded into a 96-well plate with 100 μL of culture medium added to each well. On the third day, the drugs were added for test. The 96-well plate was taken out from the cell incubator to decant the culture medium, 40 µL of the substrate coelenterazine 400a (final concentration of 5 μM) was added to each well, and then 20 μL of different drugs were added sequentially from left to right to ensure that the final concentration of the drug decreased gradually from bottom to top, with two replicates per treatment. Finally, the prepared samples were loaded on machine for test. The machine readout value reflected the recruitment of β-arrestin2 to the membrane or the dissociation of G protein trimer. The former indicated the degree of activation of the β-arrestin2 signaling pathway downstream of the 5-HT1 serotonin 1A receptors, and the latter indicated the degree of activation of the G protein signaling pathway downstream of the serotonin 1A receptors.

[3] = target: T2, 5-hydroxytryptamine 1A (5-HT1A) receptors; assay: 5-HT1A receptor Gαi1 BRET (G protein trimer dissociation); format: cell-based; conditions: relative to endogenous ligand 5-hydroxytryptamine
[4] = target: T2, 5-hydroxytryptamine 1A (5-HT1A) receptors; assay: 5-HT1A receptor radioligand competition binding assay ([3H]-LSD); conditions: 293T membranes, read-out: Affinity Ki
Method: The affinity of the compounds of the present disclosure for 5-hydroxytryptamine 1A (5-HT1A) receptors was determined by a radioligand competition binding assay.
In the first step, a cell membrane component containing specific 5-HT1A receptors was prepared. […] A vacuum pump was used to suck off the culture medium, 3 mL of lysis buffer was added to each culture dish, and the cells were placed in a 4° C. cold room for 10 minutes. After the cells were detached, the cells were transferred to a 15 mL centrifuge tube and centrifuged at 1500 rpm for 5 minutes at 4° C., and the supernatant was discarded. The cell pellet was transferred to a tissue homogenizer, and 3 mL of lysis buffer was added and fully ground until the cells were broken. Then, cell suspension was equally aliquoted into several EP tubes, centrifuged at 12000 rpm for 5 minutes at 4° C., and the supernatant was discarded. The precipitate was the cell membrane component containing the 5-HT1A receptors.
First, a standard binding buffer was added to the cell membrane component containing the 5-HT1A receptors, and the cell membrane was disrupted and resuspended with an electric tissue homogenizer. 30 μL of membrane protein suspension was added to each well of a 96-well plate. Then, 30 μL of different drugs were added to the 96-well plate sequentially from bottom to top to ensure that the final drug concentrations were 10^−5 M, 10^−6 M, 10^−7 M, 10^−8 M, 10^−9 M, and 0 M, with two replicates per treatment. Next, 30 μL of [^3H]-LSD was added to each well of the 96-well plate. The plate was incubated at room temperature in the dark for 2 hours. Detection was conducted. The machine readout value reflected the amount of [^3H]-LSD bound on the membrane, and after further data processing, the binding affinity Ki values of different compounds for the 5-HT1A receptors were obtained.

dopamine D2 receptors [5] = target: T1, dopamine D2 receptors; assay: Dopamine D2 receptor Gαi1 BRET (G protein trimer dissociation); format: cell-based; conditions: for Emax: relative to endogenous ligand dopamine, read-out: Gαi1 BRET Emax % ± SEM; for EC50: unit printed only in Cariprazine cell, read-out: Gαi1 BRET EC50
Method in brief: (§1)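 G-protein assay: cells co-transfected with D2 receptor, Gαi1-Rluc, Gβ3 and Gγ9-GFP (1 μg each); β-arrestin2 assay: D2-Rluc, GRK2 and GFP2-β-arrestin2 co-transfected. Cells were reseeded after one day and tested on day three. Drug dilution series were added in duplicate with coelenterazine 400a (5 μM final), and the BRET signal was read.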

dopamine D2 receptors [6] = target: T1, dopamine D2 receptors; assay: Dopamine D2 receptor β-arrestin2 BRET (recruitment); format: cell-based; conditions: for Emax: relative to endogenous ligand dopamine, read-out: β-arrestin2 BRET Emax % ± SEM; for EC50: unit printed only in Cariprazine cell, read-out: β-arrestin2 BRET EC50
Method in brief: as §1

T1 sequence (P14416 whole entry): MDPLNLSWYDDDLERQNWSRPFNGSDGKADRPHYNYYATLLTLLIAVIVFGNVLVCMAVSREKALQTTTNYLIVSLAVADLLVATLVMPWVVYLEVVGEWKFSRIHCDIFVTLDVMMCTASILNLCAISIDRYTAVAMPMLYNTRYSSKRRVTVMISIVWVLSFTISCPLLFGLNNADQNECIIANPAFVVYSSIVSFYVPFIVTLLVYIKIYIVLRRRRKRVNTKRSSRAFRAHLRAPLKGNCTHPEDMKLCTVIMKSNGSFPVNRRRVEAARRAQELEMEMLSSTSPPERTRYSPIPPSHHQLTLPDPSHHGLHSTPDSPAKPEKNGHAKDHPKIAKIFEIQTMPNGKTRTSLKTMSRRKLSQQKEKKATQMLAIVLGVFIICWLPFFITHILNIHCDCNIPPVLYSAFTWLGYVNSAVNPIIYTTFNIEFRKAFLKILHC

Row | Ki (dopamine D2 receptors [1]) | Emax [2] | Emax [3] | Ki [4] | Emax (dopamine D2 receptors [5]) | EC50 (dopamine D2 receptors [5]) | Emax (dopamine D2 receptors [6]) | EC50 (dopamine D2 receptors [6]) | SMILES
1 | 272 nM | 92% | 123% | 5.43 nM | – | – | – | – | COc1cccc2c3c(oc12)CN(CCNC(=O)C1CCC(F)(F)CC1)CC3 [I-A15, 4,4-difluoro-N-(2-(8-methoxy-3,4-dihydrobenzofuro[2,3-c]pyridin-2(1H)-yl)ethyl)cyclohexane-1-carboxamide]
2 | – | 49.6% | 59.5% | 0.073 nM | 79% | 56 nM | 89% | 86.4 nM | COc1cccc2c3c(oc12)CN(CCCCn1ncc(=O)n(C)c1=O)CC3 [I-A22, 2-(4-(8-methoxy-3,4-dihydrobenzofuro[2,3-c]pyridin-2(1H)-yl)butyl)-4-methyl-1,2,4-triazine-3,5(2H,4H)-dione]
3 | – | 31.6% | 102% | 2.55 nM | 21% | 12.9 nM | 12% | 233 nM | CCOc1cccc2c3c(oc12)CN(CCNC(=O)C1CCCCCC1)CC3 [I-A32, N-(2-(8-ethoxy-3,4-dihydrobenzofuro[2,3-c]pyridin-2(1H)-yl)ethyl)cycloheptanecarboxamide]
